Experimental data reported in publication PMC9481151, “Discovery of new symmetrical and asymmetrical nitrile-containing 1,4-dihydropyridine derivatives as dual kinases and P-glycoprotein inhibitors: synthesis, in vitro assays, and in silico studies” (Journal of Enzyme Inhibition and Medicinal Chemistry, 2022).
≈ marks a conversion by molar mass, not a printed value.

Key:
BTK = BTK (Homo sapiens, UniProt Q06187); assay: BTK inhibitory activity; type: biochemical
E. coli = assay: MIC, two-fold microbroth dilution method; settings: Escherichia coli, read-out: MIC (µg/mL) E. coli
BT-549 = assay: NCI single dose (10 µM) SRB screen; type: cell-based, human; settings: breast cancer, 48 h
LOX IMVI = assay: NCI single dose (10 µM) SRB screen; type: cell-based, human; settings: melanoma, 48 h
EGFR = EGFR (Homo sapiens, UniProt P00533); assay: EGFR kinase inhibitory activity; type: biochemical
Sequence of EGFR (P00533 25-1210): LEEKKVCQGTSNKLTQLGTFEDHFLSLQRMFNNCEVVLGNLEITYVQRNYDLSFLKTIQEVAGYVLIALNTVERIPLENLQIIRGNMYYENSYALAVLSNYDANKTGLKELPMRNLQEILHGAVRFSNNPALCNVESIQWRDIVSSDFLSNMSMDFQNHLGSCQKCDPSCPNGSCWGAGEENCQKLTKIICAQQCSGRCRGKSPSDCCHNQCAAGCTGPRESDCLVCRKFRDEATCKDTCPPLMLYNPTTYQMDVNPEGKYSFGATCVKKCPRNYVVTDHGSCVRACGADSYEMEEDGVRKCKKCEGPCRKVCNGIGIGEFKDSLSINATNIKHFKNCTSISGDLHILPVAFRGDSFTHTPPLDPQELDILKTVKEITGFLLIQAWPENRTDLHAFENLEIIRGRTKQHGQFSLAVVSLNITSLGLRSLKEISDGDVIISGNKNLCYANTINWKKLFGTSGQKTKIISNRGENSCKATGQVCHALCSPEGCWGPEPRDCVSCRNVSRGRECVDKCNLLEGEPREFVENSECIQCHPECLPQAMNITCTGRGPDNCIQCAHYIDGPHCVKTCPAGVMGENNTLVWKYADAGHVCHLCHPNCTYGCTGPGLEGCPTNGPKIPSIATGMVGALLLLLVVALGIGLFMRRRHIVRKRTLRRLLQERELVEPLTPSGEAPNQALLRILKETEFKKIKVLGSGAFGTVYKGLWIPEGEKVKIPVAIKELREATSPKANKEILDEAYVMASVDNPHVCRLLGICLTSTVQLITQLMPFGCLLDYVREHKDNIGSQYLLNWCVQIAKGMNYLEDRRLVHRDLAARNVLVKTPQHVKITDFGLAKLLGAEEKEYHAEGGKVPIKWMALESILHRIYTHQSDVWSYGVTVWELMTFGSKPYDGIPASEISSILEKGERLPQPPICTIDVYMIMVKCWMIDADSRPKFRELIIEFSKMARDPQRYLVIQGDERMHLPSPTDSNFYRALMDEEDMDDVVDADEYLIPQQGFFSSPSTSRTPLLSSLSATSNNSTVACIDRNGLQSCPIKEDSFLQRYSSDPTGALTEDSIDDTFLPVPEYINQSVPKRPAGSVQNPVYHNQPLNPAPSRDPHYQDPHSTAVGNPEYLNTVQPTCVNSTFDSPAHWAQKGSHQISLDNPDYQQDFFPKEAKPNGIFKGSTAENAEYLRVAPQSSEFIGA

HCT-116 cells [1] = assay: In vitro cytotoxicity; settings: Homo sapiens, HCT-116, read-out: Cytotoxicity IC50, HCT-116
C. albicans = assay: MIC, two-fold microbroth dilution method; settings: Candida albicans, read-out: MIC (µg/mL) C. albicans
B. subtilis = assay: MIC, two-fold microbroth dilution method; settings: Bacillus subtilis, read-out: MIC (µg/mL) B. subtilis
RXF 393 = assay: NCI single dose (10 µM) SRB screen; type: cell-based, human; settings: renal cancer, 48 h
Candida albicans = assay: Agar well diffusion method
HCT-116 cells [2] = assay: In vitro cell cycle analysis (DNA flow cytometry); type: cell-based, human; settings: HCT-116, 24 h, IC50 concentrations
Method: Targeting the cancer cell cycle has been developed as a encouraging approach for cancer therapy.[66]
The cells were centrifuged, frozen in cold 75% ethanol, washed in phosphate buffered saline, resuspended with […] RNase, then stained with […] PI, and analysed with a FACS Calibur (Becton Dickinson, BD, Franklin Lakes, NJ). The cell cycle distributions were determined using Becton Dickinson’s CellQuest software version 5.1.[80]

[3] = test system: drug-resistant HCT-116/ADR cells; assay: Potentiation of DOX cytotoxicity (reversal DOX effect, P-gp modulation); type: cell-based, human; settings: IC50 (DOX) without modulator / IC50 (DOX) with modulator
A. flavus = assay: MIC, two-fold microbroth dilution method; settings: Aspergillus flavus, read-out: MIC (µg/mL) A. flavus
NCI-H226 = assay: NCI single dose (10 µM) SRB screen; type: cell-based, human; settings: non-small cell lung cancer, 48 h
OVCAR-4 = assay: NCI single dose (10 µM) SRB screen; type: cell-based, human; settings: ovarian cancer, 48 h
P. aeruginosa = assay: MIC, two-fold microbroth dilution method; settings: Pseudomonas aeruginosa, read-out: MIC (µg/mL) P. aeruginosa
OVCAR-8 = assay: NCI single dose (10 µM) SRB screen; type: cell-based, human; settings: ovarian cancer, 48 h
SW-620 = assay: NCI single dose (10 µM) SRB screen; type: cell-based, human; settings: colon cancer, 48 h
HS578T = assay: NCI single dose (10 µM) SRB screen; type: cell-based, human; settings: breast cancer, 48 h
HER-2 = HER-2 (Homo sapiens, UniProt P04626); assay: HER-2 kinase inhibitory activity; type: biochemical
Sequence of HER-2 (P04626 23-1255): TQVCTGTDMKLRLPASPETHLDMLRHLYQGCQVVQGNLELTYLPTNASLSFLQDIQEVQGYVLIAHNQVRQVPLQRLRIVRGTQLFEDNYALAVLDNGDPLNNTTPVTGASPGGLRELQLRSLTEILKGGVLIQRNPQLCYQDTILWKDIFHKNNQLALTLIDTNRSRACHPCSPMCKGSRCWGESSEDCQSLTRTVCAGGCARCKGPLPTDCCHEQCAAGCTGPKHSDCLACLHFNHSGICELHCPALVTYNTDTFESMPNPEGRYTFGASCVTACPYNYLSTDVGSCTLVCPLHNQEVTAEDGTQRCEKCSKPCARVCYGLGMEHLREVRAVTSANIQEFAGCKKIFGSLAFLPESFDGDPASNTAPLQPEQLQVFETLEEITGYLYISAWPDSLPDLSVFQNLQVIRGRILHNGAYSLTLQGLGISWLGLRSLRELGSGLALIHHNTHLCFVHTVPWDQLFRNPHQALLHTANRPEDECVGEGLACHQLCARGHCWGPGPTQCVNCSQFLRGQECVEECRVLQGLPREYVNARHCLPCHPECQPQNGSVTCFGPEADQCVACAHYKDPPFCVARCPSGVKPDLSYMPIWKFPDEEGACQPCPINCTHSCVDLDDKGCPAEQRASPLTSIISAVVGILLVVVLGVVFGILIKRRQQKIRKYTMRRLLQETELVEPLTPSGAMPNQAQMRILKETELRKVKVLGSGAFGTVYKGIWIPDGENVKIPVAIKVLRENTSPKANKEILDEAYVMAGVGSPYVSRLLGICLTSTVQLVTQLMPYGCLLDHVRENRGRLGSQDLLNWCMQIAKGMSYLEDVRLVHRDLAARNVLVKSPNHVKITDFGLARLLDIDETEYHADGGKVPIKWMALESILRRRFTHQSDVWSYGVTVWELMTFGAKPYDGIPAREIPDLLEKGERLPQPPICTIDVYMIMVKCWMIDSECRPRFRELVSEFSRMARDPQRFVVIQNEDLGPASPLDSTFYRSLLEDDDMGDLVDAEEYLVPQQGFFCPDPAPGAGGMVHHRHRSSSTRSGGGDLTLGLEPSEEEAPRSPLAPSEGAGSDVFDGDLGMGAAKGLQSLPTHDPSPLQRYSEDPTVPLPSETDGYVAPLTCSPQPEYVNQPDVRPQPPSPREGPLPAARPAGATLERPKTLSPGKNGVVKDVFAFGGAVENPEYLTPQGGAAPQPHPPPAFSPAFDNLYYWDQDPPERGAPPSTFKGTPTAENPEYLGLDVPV

SK-MEL-5 = assay: NCI single dose (10 µM) SRB screen; type: cell-based, human; settings: melanoma, 48 h
MCF7 = assay: NCI single dose (10 µM) SRB screen; type: cell-based, human; settings: breast cancer, 48 h
HCT-116 cells [4] = assay: Annexin V–FITC apoptosis assay; type: cell-based, human; settings: HCT-116, 10 µM, 24 h
Description: Apoptosis induction is the most important mechanism by chemotherapeutics killing tumour cells.[62]^,[63] Phosphatidylserine (PS) is translocated from the inside to the outside of the plasma membrane during apoptosis, causing cellular alterations. Annexin-V binds to PS and can be employed as a sensitive probe on the plasma membrane’s outer side.[64]^,[65]
PS externalisation was identified using the apoptosis detection kit (Annexin V-FITC/PI) (BD Biosciences) in accordance with the manufacturer’s guidelines.[79]

S. aureus = assay: MIC, two-fold microbroth dilution method; settings: Staphylococcus aureus, read-out: MIC (µg/mL) S. aureus
HCT-116/ADR cells = assay: cells; settings: Homo sapiens, HCT-116, read-out: Cytotoxicity IC50, HCT-116/ADR
NCI 60 cancer cell lines = assay: NCI single dose (10 µM) SRB screen, mean over panel; type: cell-based, human; settings: mean over 60 cell lines, 48 h
Aspergillus flavus = assay: Agar well diffusion method
OVCAR-3 = assay: NCI single dose (10 µM) SRB screen; type: cell-based, human; settings: ovarian cancer, 48 h
[5] = (IC50 lapatinib/IC50 Compound)*100

Sequence of BTK (Q06187 whole entry): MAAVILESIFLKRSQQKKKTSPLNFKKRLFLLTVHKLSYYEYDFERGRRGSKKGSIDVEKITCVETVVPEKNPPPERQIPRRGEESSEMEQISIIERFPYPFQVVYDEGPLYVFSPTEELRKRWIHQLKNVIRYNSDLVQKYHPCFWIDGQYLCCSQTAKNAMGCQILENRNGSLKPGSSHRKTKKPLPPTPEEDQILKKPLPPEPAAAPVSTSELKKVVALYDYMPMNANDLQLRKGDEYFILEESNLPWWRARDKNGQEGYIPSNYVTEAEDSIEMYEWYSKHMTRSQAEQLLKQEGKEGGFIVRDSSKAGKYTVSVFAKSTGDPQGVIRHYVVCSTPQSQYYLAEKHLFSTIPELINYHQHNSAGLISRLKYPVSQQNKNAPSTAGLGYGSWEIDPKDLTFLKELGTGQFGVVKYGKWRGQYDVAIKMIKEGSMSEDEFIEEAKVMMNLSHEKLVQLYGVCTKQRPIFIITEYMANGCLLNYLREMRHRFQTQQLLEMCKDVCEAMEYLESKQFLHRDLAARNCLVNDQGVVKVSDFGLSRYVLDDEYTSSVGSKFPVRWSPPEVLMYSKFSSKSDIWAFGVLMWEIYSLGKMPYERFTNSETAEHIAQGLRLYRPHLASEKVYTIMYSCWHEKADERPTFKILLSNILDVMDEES

- BTK Potency (BTK; [5]): 101.99%
- IC50 (BTK; read-out: BTK IC50 ± SD): 60.27 ± 0.42 nM
- MIC (E. coli): 32 µg/mL (≈ 66.9 µM)
- EGFR Potency (EGFR; [5]): 87.44%
- IC50 (EGFR; read-out: EGFR IC50 ± SD): 62.2 ± 0.76 nM
- MIC (C. albicans): 64 µg/mL (≈ 134 µM)
- MIC (B. subtilis): 32 µg/mL (≈ 66.9 µM)
- MIC (A. flavus): > 64 µg/mL
- MIC (P. aeruginosa): 32 µg/mL (≈ 66.9 µM)
- HER-2 Potency (HER-2; [5]): 103.20%
- IC50 (HER-2; read-out: HER-2 IC50 ± SD): 70.55 ± 0.63 nM
- MIC (S. aureus): 64 µg/mL (≈ 134 µM)
Structure (SMILES): CC1=C(C(=O)OCc2ccccc2)C(c2cccc(C#N)c2)C(C(=O)OCc2ccccc2)=C(C)N1 [Compound 1g, Dibenzyl 4-(3-cyanophenyl)-2,6-dimethyl-1,4-dihydropyridine-3,5-dicarboxylate]
- GI% BT-549 (BT-549): – (Only GI% ≥ 10 are shown)
- GI% LOX IMVI (LOX IMVI): 65%
- IC50 (HCT-116 cells [1]): 990 ± 580 nM
- GI% RXF 393 (RXF 393): 36%
- zone of inhibition at 1000 µg/mL (Candida albicans; Candida albicans, 24 h, read-out: Diameter of inhibition zone, C. albicans): 10 mm
- % activity index, C. albicans (Candida albicans; relative to clotrimazole): 37%
- %G0-G1 (HCT-116 cells [2]): 39.17–43.25%
- %G2-M (HCT-116 cells [2]): 26.03–31.84%
- %Pre-G1 (HCT-116 cells [2]): 15.57–19.36%
- RF (reversal fold activity) [3]: 23.48
- GI% NCI-H226 (NCI-H226): 46%
- GI% OVCAR-4 (OVCAR-4): 33%
- GI% OVCAR-8 (OVCAR-8): 41%
- GI% SW-620 (SW-620): 65%
- GI% HS578T (HS578T): 35%
- GI% SK-MEL-5 (SK-MEL-5): 55%
- GI% MCF7 (MCF7): 53%
- early apoptosis ratio (lower-right quadrant) (HCT-116 cells [4]): 4.37–6.17%
- late apoptosis ratio (upper-right quadrant) (HCT-116 cells [4]): 9.45–11.28%
- IC50 (HCT-116/ADR cells): 10610 ± 100 nM
- Mean GI% (NCI 60 cancer cell lines): 41%
- zone of inhibition at 1000 µg/mL (Aspergillus flavus; Aspergillus flavus, 24 h, read-out: Diameter of inhibition zone, A. flavus): 14 mm
- % activity index, A. flavus (Aspergillus flavus; relative to clotrimazole): 56%
- GI% OVCAR-3 (OVCAR-3): 23%
